Results: patent US20250066372A1, “HETEROCYCLIC COMPOUNDS, COMPOSITIONS THEREOF, AND METHODS OF TREATMENT THEREWITH” (BeiGene, Ltd., priority 2022, published 2025)
pIC50: −log10 of the molar value.

molecular target: CDK4/Cyclin D1 (Homo sapiens (Human), UniProt P11802); test: CDK4/Cyclin D1 biochemical assay (TR-FRET); details: 1 mM ATP, 0.15 μM Rb (Ser780)-biotin substrate
Sequence (P11802 whole entry): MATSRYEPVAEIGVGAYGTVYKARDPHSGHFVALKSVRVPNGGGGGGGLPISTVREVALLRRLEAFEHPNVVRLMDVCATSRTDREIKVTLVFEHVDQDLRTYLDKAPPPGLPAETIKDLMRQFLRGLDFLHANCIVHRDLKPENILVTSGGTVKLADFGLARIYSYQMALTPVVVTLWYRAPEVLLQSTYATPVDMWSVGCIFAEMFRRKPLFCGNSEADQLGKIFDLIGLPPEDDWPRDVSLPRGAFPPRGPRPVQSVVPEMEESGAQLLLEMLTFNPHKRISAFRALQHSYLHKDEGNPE
Sequence (P24385 whole entry partner): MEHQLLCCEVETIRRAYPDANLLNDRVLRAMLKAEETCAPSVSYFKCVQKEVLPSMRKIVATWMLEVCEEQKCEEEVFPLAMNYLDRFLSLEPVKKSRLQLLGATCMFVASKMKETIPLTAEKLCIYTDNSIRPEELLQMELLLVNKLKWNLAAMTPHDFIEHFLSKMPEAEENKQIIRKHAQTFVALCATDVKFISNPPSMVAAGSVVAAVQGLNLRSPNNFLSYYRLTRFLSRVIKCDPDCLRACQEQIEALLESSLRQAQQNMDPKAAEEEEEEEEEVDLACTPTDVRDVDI

SMILES | pIC50
CN(C)C(=O)c1cc2cnc(N[C@@H]3CCOC[C@H]3O)nc2n1C1CCCC1 [Example 1, 7-cyclopentyl-2-(((3S,4R)-3-hydroxytetrahydro-2H-pyran-4-yl)amino)-N,N-dimethyl-7H-pyrrolo[2,3-d]pyrimidine-6-carboxamide] | 7.17
CC(=O)c1c(C)c2cnc(N[C@@H]3CCOC[C@H]3O)nc2n(C2CCCC2)c1=O [Example 2 in WO2020212865, reference compound] | 8.06
Cc1ccc(-n2c(C(=O)N(C)C)cc3cnc(N[C@@H]4CCOC[C@H]4O)nc32)cc1 [Example 2, 2-(((3S,4R)-3-hydroxytetrahydro-2H-pyran-4-yl)amino)-N,N-dimethyl-7-(p-tolyl)-7H-pyrrolo[2,3-d]pyrimidine-6-carboxamide] | 6.44
CN(C)Cc1ccc(-n2c(C(=O)N(C)C)cc3cnc(N[C@@H]4CCOC[C@H]4O)nc32)cc1 [Example 3, 7-(4-((dimethylamino)methyl)phenyl)-2-(((3S,4R)-3-hydroxytetrahydro-2H-pyran-4-yl)amino)-N,N-dimethyl-7H-pyrrolo[2,3-d]pyrimidine-6-carboxamide] | 7.14
CN(C)Cc1ccc(-n2c(C(=O)N(C)C)cc3cnc(N[C@@H]4CCOC[C@H]4O)nc32)cc1C1CC1 [Example 4, 7-(3-cyclopropyl-4-((dimethylamino)methyl)phenyl)-2-(((3S,4R)-3-hydroxytetrahydro-2H-pyran-4-yl)amino)-N,N-dimethyl-7H-pyrrolo[2,3-d]pyrimidine-6-carboxamide] | 8.01
CN(C)Cc1ccc(-n2c(C(=O)N(C)C)cc3cnc(N[C@@H]4CCOC[C@H]4O)nc32)cc1F [Example 5, 7-(4-((dimethylamino)methyl)-3-fluorophenyl)-2-(((3S,4R)-3-hydroxytetrahydro-2H-pyran-4-yl)amino)-N,N-dimethyl-7H-pyrrolo[2,3-d]pyrimidine-6-carboxamide] | 7.29
CN(C)Cc1ccc(-n2c(C(=O)N(C)C)cc3cnc(N[C@@H]4CCOC[C@H]4O)nc32)cc1Cl [Example 6, 7-(3-chloro-4-((dimethylamino)methyl)phenyl)-2-(((3S,4R)-3-hydroxytetrahydro-2H-pyran-4-yl)amino)-N,N-dimethyl-7H-pyrrolo[2,3-d]pyrimidine-6-carboxamide] | 7.66
CN(C)Cc1ccc(-n2c(C(=O)N(C)C)cc3cnc(N[C@@H]4CCOC[C@H]4O)nc32)cc1C(F)(F)F [Example 7, 7-(4-((dimethylamino)methyl)-3-(trifluoromethyl)phenyl)-2-(((3S,4R)-3-hydroxytetrahydro-2H-pyran-4-yl)amino)-N,N-dimethyl-7H-pyrrolo[2,3-d]pyrimidine-6-carboxamide] | 8.23
CN1CCc2cc(-n3c(C(=O)N(C)C)cc4cnc(N[C@@H]5CCOC[C@H]5O)nc43)ccc2C1 [Example 8, 2-(((3S,4R)-3-hydroxytetrahydro-2H-pyran-4-yl)amino)-N,N-dimethyl-7-(2-methyl-1,2,3,4-tetrahydroisoquinolin-6-yl)-7H-pyrrolo[2,3-d]pyrimidine-6-carboxamide] | 6.84
CN(C)C(=O)c1cc2cnc(N[C@@H]3CCOC[C@H]3O)nc2n1-c1ccc2c(c1)CCCC2N(C)C (stereo partly drawn) [Example 9, 7-(5-(dimethylamino)-5,6,7,8-tetrahydronaphthalen-2-yl)-2-(((3S,4R)-3-hydroxytetrahydro-2H-pyran-4-yl)amino)-N,N-dimethyl-7H-pyrrolo[2,3-d]pyrimidine-6-carboxamide] | 7.92
CN(C)C(=O)c1cc2cnc(N[C@@H]3CCOC[C@H]3O)nc2n1-c1ccc2c(c1)C1(CCC2N(C)C)CC1 (stereo partly drawn) [Example 10, 7-(4′-(dimethylamino)-3′,4′-dihydro-2′H-spiro[cyclopropane-1,1′-naphthalen]-7′-yl)-2-(((3S,4R)-3-hydroxytetrahydro-2H-pyran-4-yl)amino)-N,N-dimethyl-7H-pyrrolo[2,3-d]pyrimidine-6-carboxamide] | 7.89
CN(C)C(=O)c1cc2cnc(N[C@@H]3CCOC[C@H]3O)nc2n1-c1ccc2c(c1)C(F)(F)CCC2N(C)C (stereo partly drawn) [Example 11, 7-(5-(dimethylamino)-8,8-difluoro-5,6,7,8-tetrahydronaphthalen-2-yl)-2-(((3S,4R)-3-hydroxytetrahydro-2H-pyran-4-yl)amino)-N,N-dimethyl-7H-pyrrolo[2,3-d]pyrimidine-6-carboxamide] | 8.68
CN(C)C(=O)c1cc2cnc(N[C@@H]3CCOC[C@H]3O)nc2n1-c1ccc2c(c1)CCC2N(C)C (stereo partly drawn) [Example 12, 7-(1-(dimethylamino)-2,3-dihydro-1H-inden-5-yl)-2-(((3S,4R)-3-hydroxytetrahydro-2H-pyran-4-yl)amino)-N,N-dimethyl-7H-pyrrolo[2,3-d]pyrimidine-6-carboxamide] | 7.38
CN(C)C(=O)c1cc2cnc(N[C@@H]3CCOC[C@H]3O)nc2n1-c1ccc2c(c1)C1(CC1)CC2N(C)C (stereo partly drawn) [Example 13, 7-(3′-(dimethylamino)-2′,3′-dihydrospiro[cyclopropane-1,1′-inden]-6′-yl)-2-(((3S,4R)-3-hydroxytetrahydro-2H-pyran-4-yl)amino)-N,N-dimethyl-7H-pyrrolo[2,3-d]pyrimidine-6-carboxamide] | 7.42
CC(C)n1c(C(C)(C)O)nc2c(F)cc(-c3nc(N[C@@H]4CCOC[C@H]4O)ncc3Cl)cc21 [Example A94 in WO2019207463, reference compound] | 8.30
